For 28 molecules, IC50 results are on record in patent US10703757B2, “Compounds and methods for CDK8 modulation and indications therefor” (Plexxikon Inc., priority 2016, dated 2020).

For assay [1], the system named is CDK8 (TCF/LEF luciferase reporter in HCT116 cells). The assay can be described thus: Cell based TCF/LEF reporter assay (HCT116+TCF/LEF luciferase). As to conditions: Homo sapiens, HCT-116, 24 h. In outline:
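HCT116 cells stably carrying a TCF/LEF-luciferase reporter (endogenous mutant β-catenin), seeded overnight, then exposed to serial compound dilutions for 24 h at 37 °C. Luminescence normalized to CellTiter-Fluor viability signal. % inhibition relative to DMSO and 10 uM CCT251545 controls, with IC50 from nonlinear regression.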

For assay [2], the system named is CDK8 (phosphorylation of STAT1 at serine 727 in A549 cells). The assay can be described thus: Cell based Phospho-STAT1 assay (IFNγ-stimulated A549 cells, AlphaLISA). The note with it: Homo sapiens, A549, A549 cells, phospho-STAT1 after IFNγ stimulation. In outline: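 A549 cells given serial compound dilutions for 1 h at 37 °C, then stimulated with IFNγ at 10 ng/mL final for 30 min. Lysate STAT1 Ser727 phosphorylation measured by AlphaLISA; % inhibition vs stimulated/unstimulated DMSO controls, IC50 by nonlinear regression.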
In general terms: Alpha assays give light when donor and acceptor beads are brought close together.

The structures appear in SMILES notation. pIC50: −log10 of the molar value.

As a reminder, the pIC50 is −log10 of the IC50, conventionally taken in molar units.

Turning to `N#CC1CC=C(c2nccn3ncc(-c4ccc(-c5cnn(CCF)c5)cc4)c23)CC1` (centres unmarked) [Compound P-0036, 4-(3-(4-(1-(2-fluoroethyl)-1H-pyrazol-4-yl)phenyl)pyrazolo[1,5-a]pyrazin-4-yl)cyclohex-3-ene-1-carbonitrile], the pIC50 in assay [1] and in assay [2] was 7.00 to 10.00 throughout.

As to `CC(C)(C)COc1ccc(-c2cnn3cccc(N4CCC(C#N)CC4)c23)cc1` [Compound P-0266, 1-(3-(4-(neopentyloxy)phenyl)pyrazolo[1,5-a]pyridin-4-yl)piperidine-4-carbonitrile], the pIC50 in assay [1] and in assay [2] was 5.00 to 6.00 in each case.

Regarding `CCCS(=O)(=O)Nc1ccc2cc(-c3cnn4ccnc(C#CC(C)(C)C(N)=O)c34)ccc2c1` [Compound P-0069, 2,2-dimethyl-4-(3-(6-(propylsulfonamido)naphthalen-2-yl)pyrazolo[1,5-a]pyrazin-4-yl)but-3-ynamide], the pIC50 in assay [1] and in assay [2] was 7.00 to 10.00 each time.

Consider `N#CC1CC=C(c2nccn3ncc(-c4ccc(OCC5CCCCO5)cc4)c23)CC1` (centres unmarked) [Compound P-0079, 4-(3-(4-((tetrahydro-2H-pyran-2-yl)methoxy)phenyl)pyrazolo[1,5-a]pyrazin-4-yl)cyclohex-3-ene-1-carbonitrile], for which the pIC50 in assay [1] and in assay [2] was 7.00 to 10.00 throughout.

On to `N#CC1CC=C(c2nccn3ncc(-c4ccc(-c5cnn(CC6(C#N)CC6)c5)cc4)c23)CC1` (centres unmarked) [Compound P-0096, 4-(3-(4-(1-((1-cyanocyclopropyl)methyl)-1H-pyrazol-4-yl)phenyl)pyrazolo[1,5-a]pyrazin-4-yl)cyclohex-3-ene-1-carbonitrile], for which the pIC50 in assay [1] and in assay [2] was 7.00 to 10.00 throughout.

For the molecule `CN1CCN(C(=O)c2ccc3cc(-c4cnc5[nH]ccc5c4N4CCC(C#N)CC4)ccc3c2)CC1` [Compound P-0328, 1-(5-(6-(4-methylpiperazine-1-carbonyl)naphthalen-2-yl)-1H-pyrrolo[2,3-b]pyridin-4-yl)piperidine-4-carbonitrile], the pIC50 in assay [1] and in assay [2] was 7.00 to 10.00 in each case.

In the case of `CC(C)Cn1cc(-c2ccc(-c3cnn4ccnc(C5=CCC(C#N)CC5)c34)cc2)cn1` (centres unmarked) [Compound P-0035, 4-(3-(4-(1-isobutyl-1H-pyrazol-4-yl)phenyl)pyrazolo[1,5-a]pyrazin-4-yl)cyclohex-3-ene-1-carbonitrile], the pIC50 in assay [1] and in assay [2] was 7.00 to 10.00 throughout.

As to `COc1ccc2cc(-c3cnn4ccnc(C5=CCC(C(N)=O)CC5)c34)ccc2n1` (centres unmarked) [Compound P-0154, 4-(3-(2-methoxyquinolin-6-yl)pyrazolo[1,5-a]pyrazin-4-yl)cyclohex-3-ene-1-carboxamide], the negative-log IC50 (pIC50) in assay [1] and in assay [2] was 7.00 to 10.00 each time.

Turning to `Cn1ncc2cc(-c3cnn4cccc(N5CCC6(CCNC6=O)CC5)c34)ccc21` [Compound P-0169, 8-(3-(1-methyl-1H-indazol-5-yl)pyrazolo[1,5-a]pyridin-4-yl)-2,8-diazaspiro[4.5]decan-1-one], the pIC50 in assay [1] and in assay [2] was 7.00 to 10.00 in each case.

With `CN1CCN(C(=O)c2ccc(-c3cnc4[nH]ccc4c3C3=CCC(C#N)CC3)cc2)CC1` (centres unmarked) [Compound P-0331, 4-(5-(4-(4-methylpiperazine-1-carbonyl)phenyl)-1H-pyrrolo[2,3-b]pyridin-4-yl)cyclohex-3-ene-1-carbonitrile], the pIC50 in assay [1] and in assay [2] was 6.00 to 7.00 throughout.

For `N#CC1CC=C(c2cccc3ncc(-c4ccc(-c5cnn(C(F)F)c5)cc4)n23)CC1` (centres unmarked) [Compound P-0438, 4-(3-(4-(1-(difluoromethyl)-1H-pyrazol-4-yl)phenyl)imidazo[1,2-a]pyridin-5-yl)cyclohex-3-ene-1-carbonitrile], the pIC50 in assay [1] and in assay [2] was 7.00 to 10.00 each time.

For the molecule `Cn1cc(-c2ccc(-c3cnc4[nH]ccc4c3C3=CCC(C#N)CC3)cc2)cn1` (centres unmarked) [Compound P-0359, 4-(5-(4-(1-methyl-1H-pyrazol-4-yl)phenyl)-1H-pyrrolo[2,3-b]pyridin-4-yl)cyclohex-3-ene-1-carbonitrile], the pIC50 in assay [1] and in assay [2] was 7.00 to 10.00 each time.

In the case of `Cc1nc2ccc(-c3cnc4[nH]ccc4c3C3=CCC(C#N)CC3)cc2s1` (centres unmarked) [Compound P-0164, 4-(5-(2-methylbenzo[d]thiazol-6-yl)-1H-pyrrolo[2,3-b]pyridin-4-yl)cyclohex-3-ene-1-carbonitrile], the pIC50 in assay [1] and in assay [2] was 7.00 to 10.00 in each case.

Turning to `N#CCCn1cc(-c2ccc(-c3cnn4ccnc(C5CCC(C#N)CC5)c34)cc2)cn1` (centres unmarked) [Compound P-0098, 4-(3-(4-(1-(2-cyanoethyl)-1H-pyrazol-4-yl)phenyl)pyrazolo[1,5-a]pyrazin-4-yl)cyclohexane-1-carbonitrile], the pIC50 in assay [1] and in assay [2] was 7.00 to 10.00 throughout.

Consider `Cn1cc(-c2ccc(-c3cnn4cccc(C#CC(C)(C)O)c34)cc2)cn1` [Compound P-0429, 2-methyl-4-[3-[4-(1-methylpyrazol-4-yl)phenyl]pyrazolo[1,5-a]pyridin-4-yl]but-3-yn-2-ol], for which the pIC50 in assay [1] and in assay [2] was 7.00 to 10.00 throughout.

For `CC(C)(O)Cn1cc(-c2ccc(-c3cnc4[nH]ccc4c3C3=CCC(C(N)=O)CC3)cc2F)cn1` (centres unmarked) [Compound P-0134, 4-(5-(3-fluoro-4-(1-(2-hydroxy-2-methylpropyl)-1H-pyrazol-4-yl)phenyl)-1H-pyrrolo[2,3-b]pyridin-4-yl)cyclohex-3-ene-1-carboxamide], the figures for the pIC50 in assay [1] and in assay [2] were 7.00 to 10.00 and 6.00 to 7.00, respectively.

For `N#CC1CC=C(c2nccn3ncc(-c4ccc(Cl)c(F)c4)c23)CC1` (centres unmarked) [Compound P-0083, 4-(3-(4-chloro-3-fluorophenyl)pyrazolo[1,5-a]pyrazin-4-yl)cyclohex-3-ene-1-carbonitrile], the pIC50 in assay [1] and in assay [2] was 6.00 to 7.00 throughout.

Take `Cn1cc(-c2ccc(-c3cnc4[nH]ccc4c3C#CC(C)(C)O)cc2)cn1` [Compound P-0341, 2-methyl-4-(5-(4-(1-methyl-1H-pyrazol-4-yl)phenyl)-1H-pyrrolo[2,3-b]pyridin-4-yl)but-3-yn-2-ol]: the pIC50 in assay [1] and in assay [2] was 7.00 to 10.00 each time.

Regarding `CC(C)(C#Cc1cccn2ncc(-c3ccc(-c4cnn(CC5CC5)c4)cc3)c12)C(N)=O` [Compound P-0463, 4-(3-(4-(1-(cyclopropylmethyl)-1H-pyrazol-4-yl)phenyl)pyrazolo[1,5-a]pyridin-4-yl)-2,2-dimethylbut-3-ynamide], the pIC50 in assay [1] and in assay [2] was 7.00 to 10.00 each time.

In the case of `N#CC1CCN(c2cccn3ncc(-c4ccc(OCC(O)CN5CCCCC5)cc4)c23)CC1` (centres unmarked) [Compound P-0263, 1-(3-(4-(2-hydroxy-3-(piperidin-1-yl)propoxy)phenyl)pyrazolo[1,5-a]pyridin-4-yl)piperidine-4-carbonitrile], the pIC50 in assay [1] and in assay [2] was 7.00 to 10.00 in each case.

For `N#CC1CC=C(c2c(-c3ccc4[nH]c(=O)[nH]c4c3)cnc3[nH]ccc23)CC1` (centres unmarked) [Compound P-0206, 4-(5-(2-oxo-2,3-dihydro-1H-benzo[d]imidazol-5-yl)-1H-pyrrolo[2,3-b]pyridin-4-yl)cyclohex-3-ene-1-carbonitrile], the pIC50 in assay [1] and in assay [2] was 7.00 to 10.00 in each case.

Take `Cn1cc(-c2ccc(-c3cnn4ccnc(C5=CCC(C(N)=O)CC5)c34)cc2)cn1` (centres unmarked) [Compound P-0280, 4-(3-(4-(1-methyl-1H-pyrazol-4-yl)phenyl)pyrazolo[1,5-a]pyrazin-4-yl)cyclohex-3-ene-1-carboxamide]: the pIC50 in assay [1] and in assay [2] was 7.00 to 10.00 throughout.

Regarding `N#CC1CC=C(c2cccn3ncc(-c4ccc(CN5CCOCC5)c(F)c4)c23)CC1` (centres unmarked) [Compound P-0120, 4-(3-(3-fluoro-4-(morpholinomethyl)phenyl)pyrazolo[1,5-a]pyridin-4-yl)cyclohex-3-ene-1-carbonitrile], the pIC50 was 6.00 to 7.00 in assay [1] and 7.00 to 10.00 in assay [2].

Regarding `CS(=O)(=O)CCn1cc(-c2ccc(-c3cnn4ccnc(C5=CCC(C#N)CC5)c34)cc2)cn1` (centres unmarked) [Compound P-0033, 4-(3-(4-(1-(2-(methylsulfonyl)ethyl)-1H-pyrazol-4-yl)phenyl)pyrazolo[1,5-a]pyrazin-4-yl)cyclohex-3-ene-1-carbonitrile], the pIC50 in assay [1] and in assay [2] was 7.00 to 10.00 throughout.

Consider `CC(C)(C)C(=O)Nc1ccc(-c2cnn3cccc(N4CCC(C#N)CC4)c23)cc1` [Compound P-0254, N-(4-(4-(4-cyanopiperidin-1-yl)pyrazolo[1,5-a]pyridin-3-yl)phenyl)pivalamide], for which the pIC50 in assay [1] and in assay [2] was 6.00 to 7.00 throughout.

As to `N#CC1CCC(c2cccn3ncc(-c4ccc(OCC(O)CN5CCCCC5)cc4)c23)CC1` (centres unmarked) [Compound P-0143, 4-(3-(4-(2-hydroxy-3-(piperidin-1-yl)propoxy)phenyl)pyrazolo[1,5-a]pyridin-4-yl)cyclohexane-1-carbonitrile], the pIC50 in assay [1] and in assay [2] was 7.00 to 10.00 in each case.

Turning to `N#CC1CCC(c2cccn3ncc(-c4ccc(OCCCN5CCCCC5)cc4)c23)CC1` (centres unmarked) [Compound P-0142, 4-(3-(4-(3-(piperidin-1-yl)propoxy)phenyl)pyrazolo[1,5-a]pyridin-4-yl)cyclohexane-1-carbonitrile], the pIC50 in assay [1] and in assay [2] was 7.00 to 10.00 in each case.

In the case of `N#CC1CC=C(c2nccn3ncc(-c4cnn(-c5ccc(F)cc5)c4)c23)CC1` (centres unmarked) [Compound P-0103, 4-(3-(1-(4-fluorophenyl)-1H-pyrazol-4-yl)pyrazolo[1,5-a]pyrazin-4-yl)cyclohex-3-ene-1-carbonitrile], the pIC50 in assay [1] is 6.00 to 7.00; in assay [2], 7.00 to 10.00.
